US7566781B2, “Imidazopyridine compound” (Banyu Pharmaceutical Co., Ltd., priority 2004, dated 2009)

The molecules below were run against T1, human MCH-1R (Homo sapiens, UniProt Q99705) (assay: MCH binding inhibition test). Settings: membranes of MCH-1R expressing CHO-K1 cells, 50 pM [125I]MCH, 25° C., 1 hour, pH 7.4; read-out: IC50 (50% inhibition concentration of test compound to the specific [125I]MCH binding).
T1 construct: expressed in transfected cells; host or cells: CHO-K1 (American Type Culture Collection), membrane samples
Procedure: A human MCH-1R encoding cDNA sequence [FEBS Letters, Vol. 398, 253 (1996); Biochimica et Biophisica Acta, Vol. 1401, 216 (1998)] was cloned to plasmid vector pEF/myc/cyto (Invitrogen Corporation). The obtained expression vector was transfected to a host cell CHO-K1 (American Type Culture Collection) using Lipofectamine Plus Reagent (Life Technology Inc.) to provide MCH-1R expression cells.
Membrane samples prepared from the MCH-1R expression cells were incubated with each test compound and 50 pM of [^125I]MCH (NEN Co.), in an assay buffer (50 mM Tris buffer comprising 10 mM magnesium chloride, 2 mM ethylenediamine tetraacetate, 0.01% bacitracin and 0.2% bovine serum albumin; pH 7.4) at 25° C. for an hour, followed by filtration through Glass Filter GF/C (Wattman Co.). After washing the glass filter with 50 mM Tris buffer (pH 7.4) comprising 10 mM magnesium chloride, 2 mM ethylenediamine tetraacetate and 0.04% Tween-20, the radioactive activity on the glass filter was measured. The non-specific binding was measured in the presence of 1 μM human MCH and 50% inhibition concentration (IC50 value) of each test compound to the specific [^125I]MCH binding was determined.

T1 sequence (Q99705 whole entry): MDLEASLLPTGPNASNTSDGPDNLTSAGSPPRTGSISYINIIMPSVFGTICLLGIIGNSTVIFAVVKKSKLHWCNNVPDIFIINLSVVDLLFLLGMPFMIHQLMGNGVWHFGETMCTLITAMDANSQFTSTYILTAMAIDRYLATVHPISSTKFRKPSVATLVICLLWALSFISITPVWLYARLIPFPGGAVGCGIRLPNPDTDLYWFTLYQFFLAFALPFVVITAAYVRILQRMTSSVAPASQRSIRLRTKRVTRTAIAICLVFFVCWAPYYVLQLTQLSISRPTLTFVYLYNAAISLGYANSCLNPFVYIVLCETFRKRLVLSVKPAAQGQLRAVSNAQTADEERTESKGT

| Compound | IC50 |
| --- | --- |
| CCc1nc2ccc(NC(=O)c3ccc(OCc4ccccn4)c(F)c3)cn2c1C [Example 9, N-(2-ethyl-3-methylimidazo[1,2-a]pyridin-6-yl)-3-fluoro-4-(pyridin-2-ylmethoxy)benzamide] | 3.4 nM |
| CCc1nc2ccc(NC(=O)c3ccc(OCc4ccc(F)cn4)c(F)c3)cn2c1C [Example 11, N-(2-ethyl-3-methylimidazo[1,2-a]pyridin-6-yl)-3-fluoro-4-[(5-fluoropyridin-2-yl)methoxy]benzamide] | 2.2 nM |
| Cc1c(C2CC2)nc2ccc(NC(=O)c3ccc(COc4ccccn4)cc3)cn12 [Example 25] | 8.4 nM |
| Cc1c(C(C)C)nc2ccc(NC(=O)c3ccc(CCc4ccccn4)cc3)cn12 [Example 49, N-(2-isopropyl-3-methylimidazo[1,2-a]pyridin-6-yl)-4-(2-pyridin-2-ylethyl)benzamide] | 6.2 nM |
| Cc1c(C2CCOC2)nc2ccc(NC(=O)c3ccc(SCc4ccccn4)cc3)cn12 (stereo not drawn) [Example 59, N-[3-methyl-2-(tetrahydrofuran-3-yl)imidazo[1,2-a]pyridin-6-yl]-4-(pyridin-2-ylmethylsulfanyl)benzamide] | 3.8 nM |
| Cc1c(C2CC2)nc2ccc(NC(=O)c3ccc(NC(=O)c4ccccn4)cc3)cn12 [Example 61, Pyridine-2-carboxylic acid[4-(2-cyclopropyl-3-methylimidazo[1,2-a]pyridin-6-ylcarbamoyl)phenyl]amide] | 4.7 nM |
| CCc1nc2ccc(NC(=O)c3ccc(Oc4cc(Cl)ccn4)cc3)cn2c1C [Example 67, 4-(4-Chloropyridin-2-yloxy)-N-(2-ethyl-3-methylimidazo[1,2-a]pyridin-6-yl)benzamide] | 4.3 nM |

Other lines, results leading:

| IC50 | Compound |
| --- | --- |
| 0.49 nM | Cc1c(CCCN2CCCC2)nc2ccc(NC(=O)c3ccc(OCc4ccccc4)cc3)cn12 [Example 17] |
| 1.3 nM | CCc1nc2ccc(NC(=O)c3ccc(/C=C/c4ccccc4)cc3)cn2c1C [Example 28, N-(2-ethyl-3-methylimidazo[1,2-a]pyridin-6-yl)-4-((E)-2-phenylvinyl)benzamide] |
| 4.8 nM | Cc1c(C2CCOC2)nc2ccc(NC(=O)c3ccc(/C(F)=C/c4ccccn4)cc3)cn12 (stereo not drawn) [Example 42] |
| 0.47 nM | Cc1c(CCCN2CCCC2)nc2ccc(NC(=O)c3ccc(/C=C/c4ccccn4)cc3)cn12 [Example 48, N-[3-methyl-2-(3-pyrrolidin-1-ylpropyl)imidazo[1,2-a]pyridin-6-yl]-4-[(E)-2-pyridin-2-ylvinyl]benzamide] |
| 3.8 nM | CCc1nc2ccc(NC(=O)c3ccc(C(F)Cc4ccccn4)cc3)cn2c1C (stereo not drawn) [Example 58, N-(2-ethyl-3-methylimidazo[1,2-a]pyridin-6-yl)-4-(1-fluoro-2-pyridin-2-ylethyl)benzamide] |
